# In US7705188B2 (Arizona Board of Regents, a body corporate of the State of …, priority 2002, dated 2010):
# Read-outs that look alike come from different tables or passages of the source.
# Tests used:
# bacteria and fungi = test: Antimicrobial evaluation, summary; assay type: cell-based
# From the text: (§1) Stilbene production has been correlated with the resistance of grape leaves to fungal infection.
# NCI-H460 = test: Cytotoxicity, lung-NSC NCI-H460; assay type: cell-based, human; conditions: Homo sapiens, NCI-H460, NCI-H460; read-out: Lung-NSC NCI-H460 GI50
# SF-268 = test: Cytotoxicity, CNS SF-268; assay type: cell-based, human; conditions: Homo sapiens, SF-268, SF-268; read-out: CNS SF-268 GI50
# [1] = system: P-388 and human tumor cell lines; test: Cytotoxicity, summary over P-388 and human tumor cell lines; assay type: cell-based
# BXPC-3 = test: Cytotoxicity, pancreas-a BXPC-3; assay type: cell-based, human; conditions: Homo sapiens, BXPC-3, BXPC-3
# MCF-7 = test: Cytotoxicity, breast MCF-7; assay type: cell-based, human; conditions: Homo sapiens, MCF7
# KM201.2 = test: Cytotoxicity, colon KM201.2; assay type: cell-based, human; conditions: Homo sapiens, KM201.2; read-out: Colon KM201.2 GI50
# DU-145 = test: Cytotoxicity, prostate DU-145; assay type: cell-based, human; conditions: Homo sapiens, DU-145, DU-145
# Candida albicans = test: Antimicrobial broth microdilution, MIC; assay type: cell-based; conditions: read-out: Minimum inhibitory concentration
# From the text: as §1
# Enterobacter cloacae = test: Antimicrobial broth microdilution, MIC; assay type: cell-based; conditions: read-out: Minimum inhibitory concentration
# From the text: as §1
# Staphylococcus aureus = test: Antimicrobial broth microdilution, MIC; assay type: cell-based; conditions: read-out: Minimum inhibitory concentration
# From the text: as §1
# Cryptococcus neoformans = test: Antimicrobial broth microdilution, MIC; assay type: cell-based; conditions: read-out: Minimum inhibitory concentration
# From the text: as §1
# Micrococcus luteus = test: Antimicrobial broth microdilution, MIC; assay type: cell-based; conditions: read-out: Minimum inhibitory concentration
# From the text: as §1
# [2] = system: Stenotrophomonas maltophilia; test: Antimicrobial broth microdilution, MIC; assay type: cell-based; conditions: read-out: Minimum inhibitory concentration
# From the text: as §1
# Escherichla coli = test: Antimicrobial broth microdilution, MIC; assay type: cell-based; conditions: Escherichla coli; read-out: Minimum inhibitory concentration
# From the text: as §1
# Neisseria gonorrhoeae = test: Antimicrobial broth microdilution, MIC; assay type: cell-based; conditions: Neisseria gonorrhoeae; read-out: Minimum inhibitory concentration
# From the text: as §1
# Enterococcus faecalis = test: Antimicrobial broth microdilution, MIC; assay type: cell-based; conditions: read-out: Minimum inhibitory concentration
# From the text: as §1
# Streptococcus pneumoniae = test: Antimicrobial broth microdilution, MIC; assay type: cell-based; conditions: read-out: Minimum inhibitory concentration
# From the text: as §1
# tubulin = test: Inhibition of tubulin polymerization; assay type: biochemical
# Procedure: Extent of assembly after 20 min at 30° C. was the parameter measured. The colchicine binding assay was performed as earlier reported.^27 The tubulin concentration was 1.0 μM, the [3H] colchicine concentration was 5.0 μM, and the potential inhibitor concentrations were as indicated. Binding of colchicine was measured following a 10 min incubation at 37° C.
structure (smiles),measurement,setting,value
"COc1cc(C=Cc2ccc(O)cc2)cc(OC)c1 [Compound 14c, 3,5-dimethoxy-4′-hydroxy-stilbene]","Antimicrobial activity, in words",bacteria and fungi,most active of the stilbenes and benzophenones tested
same,GI50,NCI-H460,2.8 µg/mL
same,GI50,SF-268,2.2 µg/mL
same,"Cytotoxicity against cancer cell lines, comparison in words",[1],comparable to that of resveratrol
same,GI50,BXPC-3,12.6 µg/mL
same,GI50,MCF-7,3 µg/mL
same,GI50,KM201.2,11.9 µg/mL
same,GI50,DU-145,2.3 µg/mL
same,MIC,Candida albicans,64 µg/mL
same,MIC,Enterobacter cloacae,> 64 µg/mL
same,MIC,Staphylococcus aureus,32 µg/mL
same,MIC,Cryptococcus neoformans,16 µg/mL
same,MIC,Micrococcus luteus,8 µg/mL
same,MIC,[2],> 64 µg/mL
same,MIC,Escherichla coli,> 64 µg/mL
same,MIC,Neisseria gonorrhoeae,8 µg/mL
same,MIC,Enterococcus faecalis; first line (r12),32 to 64 µg/mL
same,MIC,Enterococcus faecalis; second line (r15),> 64 µg/mL
same,MIC,Streptococcus pneumoniae,16 µg/mL
same,Fold less active than 4a as inhibitor of tubulin assembly,tubulin; relative to 4a,16 fold
same,IC50,"tubulin; tubulin 10 μM, extent of assembly after 20 min at 30° C., read-out: Inhibition of tubulin Polymerization IC50 (μM) ± SD",29 ± 9 µM
